US4777182A, “6-Amidino-2-naphthyl 4-guanidinobenzoate derivatives and pharmaceutical composition containing them” (Torii & Co., Ltd., priority 1984, dated 1988)
“And” between values parts separate entries of the source, which are not always exact repeats. Equal values may be shown once. Read-outs that look alike come from different tables or passages of the source.

What was measured:
C1r = target: T1, C1r (Homo sapiens, UniProt P00736); assay: Anti-C1r activity (inhibition of AAME hydrolysis); assay type: biochemical; conditions: at 1×10^-5 M; read-out: percent inhibition, C1r (figure in parentheses)
T1 sequence (P00736 18-463 limits assumed): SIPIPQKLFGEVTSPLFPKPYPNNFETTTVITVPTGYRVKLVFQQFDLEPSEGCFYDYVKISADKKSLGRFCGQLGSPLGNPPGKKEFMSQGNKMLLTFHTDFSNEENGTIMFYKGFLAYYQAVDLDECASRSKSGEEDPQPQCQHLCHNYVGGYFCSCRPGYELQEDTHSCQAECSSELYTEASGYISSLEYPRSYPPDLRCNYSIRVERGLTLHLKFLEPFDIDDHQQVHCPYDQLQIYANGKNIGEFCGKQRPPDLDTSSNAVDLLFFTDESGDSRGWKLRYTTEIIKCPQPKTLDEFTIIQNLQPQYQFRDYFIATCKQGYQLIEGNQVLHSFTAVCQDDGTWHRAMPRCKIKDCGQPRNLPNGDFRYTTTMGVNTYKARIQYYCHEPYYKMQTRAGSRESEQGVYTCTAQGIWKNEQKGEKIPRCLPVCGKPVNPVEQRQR
T1 sequence (P00736 464-705 limits assumed): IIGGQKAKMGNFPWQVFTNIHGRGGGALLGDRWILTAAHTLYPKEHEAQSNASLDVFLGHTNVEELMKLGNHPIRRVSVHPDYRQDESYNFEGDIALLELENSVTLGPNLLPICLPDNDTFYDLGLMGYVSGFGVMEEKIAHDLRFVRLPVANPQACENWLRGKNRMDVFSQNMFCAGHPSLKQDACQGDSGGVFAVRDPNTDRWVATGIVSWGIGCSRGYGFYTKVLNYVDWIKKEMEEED
Protocol: The anti-C1 esterase (C1r, C1s) activity was determined according to the method of Okamura et al. [K. Okamura, M. Muramatsu and B. Fujii, Biochem. Biophys. Acta, 295, 252-257 (1973)]. (2) The inhibition of complement mediated hemolysis was determined according to the method of Baker et al. [B. R. Baker and E. H. Erickson, J. Med. Chem., 12, 408-414 (1969)]. The figures in Table 2 have the following meanings: C1r: […]

C1s = target: T2, C1s (Homo sapiens, UniProt P09871); assay: Anti-C1s activity (inhibition of ATEE hydrolysis); assay type: biochemical; conditions: read-out: ID50, C1s
T2 sequence (P09871 16-437 limits assumed): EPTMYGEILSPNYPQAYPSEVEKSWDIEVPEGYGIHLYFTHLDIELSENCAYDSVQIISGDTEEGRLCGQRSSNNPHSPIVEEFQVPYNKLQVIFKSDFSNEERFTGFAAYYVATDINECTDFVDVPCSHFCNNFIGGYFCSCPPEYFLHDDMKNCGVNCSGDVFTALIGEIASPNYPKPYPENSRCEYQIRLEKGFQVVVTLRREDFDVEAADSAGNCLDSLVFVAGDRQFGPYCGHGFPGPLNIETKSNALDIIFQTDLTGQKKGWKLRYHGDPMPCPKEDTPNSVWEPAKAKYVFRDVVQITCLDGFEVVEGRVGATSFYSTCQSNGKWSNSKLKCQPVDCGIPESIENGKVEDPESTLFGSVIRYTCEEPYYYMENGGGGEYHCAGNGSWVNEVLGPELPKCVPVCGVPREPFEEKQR
T2 sequence (P09871 438-688 limits assumed): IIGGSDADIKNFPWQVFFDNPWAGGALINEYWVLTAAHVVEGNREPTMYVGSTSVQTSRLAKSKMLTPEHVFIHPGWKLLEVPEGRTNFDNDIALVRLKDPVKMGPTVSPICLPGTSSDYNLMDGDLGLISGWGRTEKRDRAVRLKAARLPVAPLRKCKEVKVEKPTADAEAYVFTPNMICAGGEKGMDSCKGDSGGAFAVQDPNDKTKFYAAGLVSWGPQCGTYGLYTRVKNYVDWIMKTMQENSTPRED
Protocol: The anti-C1 esterase (C1r, C1s) activity was determined according to the method of Okamura et al. [K. Okamura, M. Muramatsu and B. Fujii, Biochem. Biophys. Acta, 295, 252-257 (1973)]. (2) The inhibition of complement mediated hemolysis was determined according to the method of Baker et al. [B. R. Baker and E. H. Erickson, J. Med. Chem., 12, 408-414 (1969)]. The figures in Table 2 have the following meanings:
C1s: Molar concentration of the test compound which inhibits 50% of the ability of C1s to hydrolyse ATEE (acetyltyrosin ethyl ester) (ID50).

Trypsin = target: T3, Trypsin (Bos taurus, UniProt P00760); assay: Anti-trypsin activity (inhibition of TAME hydrolysis); assay type: biochemical; conditions: read-out: ID50, Trypsin
T3 sequence (P00760 24-246): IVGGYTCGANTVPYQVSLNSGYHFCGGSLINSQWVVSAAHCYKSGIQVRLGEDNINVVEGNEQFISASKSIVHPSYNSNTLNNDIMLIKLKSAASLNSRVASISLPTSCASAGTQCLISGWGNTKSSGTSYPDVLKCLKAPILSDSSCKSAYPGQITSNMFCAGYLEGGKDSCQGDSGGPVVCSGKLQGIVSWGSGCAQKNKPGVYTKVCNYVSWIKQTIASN

Kallikrein = assay: Anti-kallikrein activity (inhibition of TAME hydrolysis); assay type: biochemical; conditions: read-out: ID50, Kallikrein
[1] = test system: complement mediated hemolysis; assay: Inhibition of complement mediated hemolysis; assay type: cell-based
From the text: Therefore, when a known amount of complement admixed with a C1 esterase inhibitor is used, the hemolysis must be suppressed in proportion to the inhibitory activity.

Thrombin = Thrombin (Homo sapiens, UniProt P00734); assay: biochemical; conditions: TAME hydrolysis; read-out: ID50, Thrombin
Plasmin = Plasmin (Homo sapiens, UniProt P00747); assay: Anti-plasmin activity (inhibition of TAME hydrolysis); assay type: biochemical
Sequence of Plasmin (P00747 97-580 limits assumed, species assumed): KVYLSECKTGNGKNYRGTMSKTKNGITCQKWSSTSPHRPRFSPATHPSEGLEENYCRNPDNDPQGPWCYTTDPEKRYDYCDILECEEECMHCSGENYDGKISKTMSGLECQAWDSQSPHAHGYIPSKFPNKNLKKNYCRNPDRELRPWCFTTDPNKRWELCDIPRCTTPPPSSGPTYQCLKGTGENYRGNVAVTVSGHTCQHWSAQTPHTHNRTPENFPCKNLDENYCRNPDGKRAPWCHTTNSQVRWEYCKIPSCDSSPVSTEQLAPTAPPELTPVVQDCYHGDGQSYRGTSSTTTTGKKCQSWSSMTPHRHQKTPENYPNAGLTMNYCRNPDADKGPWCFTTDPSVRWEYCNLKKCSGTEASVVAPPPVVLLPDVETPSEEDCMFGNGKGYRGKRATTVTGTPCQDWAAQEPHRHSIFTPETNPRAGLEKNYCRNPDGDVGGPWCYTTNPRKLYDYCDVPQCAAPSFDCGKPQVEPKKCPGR
Sequence of Plasmin (P00747 581-810 limits assumed, species assumed): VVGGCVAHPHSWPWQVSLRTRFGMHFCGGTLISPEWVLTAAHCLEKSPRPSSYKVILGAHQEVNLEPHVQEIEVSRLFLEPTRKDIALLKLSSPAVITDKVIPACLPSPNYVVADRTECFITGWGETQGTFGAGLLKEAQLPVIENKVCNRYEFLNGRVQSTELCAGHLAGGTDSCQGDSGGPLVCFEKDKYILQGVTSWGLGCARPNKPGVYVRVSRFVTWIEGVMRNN

Forssman shock = assay: Forssman shock; assay type: in vivo; conditions: guinea pig, 100 mg/kg orally before i.v. hemolysin, individual animals; for time elapsed until death: 100 mg/kg
From the text: Quite different from other animals, guinea pig has on the surface of its organs a specific antigen called Forssman antigen which specifically reacts with the antibody of sheep erythrocyte. Forssman shock is based on the above principle and is a shock caused by the administration of antibody of sheep erythrocyte to a guinea pig. The Forssman shock was investigated in detail by many researches and it was definitely shown that this shock is a model case where the complement plays the principal part and that the shock is associated with a classical pathway in which the complement system is activated progressively starting from C1. Since the participation of complement in autoimmune diseases has been established, the Forssman shock can be said to be useful means for testing a drug for autoimmune diseases. A drug effective for the treatment of Forssman shock is useful as a drug of autoimmune diseases.
The experiment was performed according to the method of I. G. Offerness et al. [Biochem. Pharmacol., 27 (14), 1873-1878 (1978)]. Male Hartley guinea pigs of about 350 g in body weight were used. Each guinea pig of the control group was administered intravenously with hemolysin (minimum dose to cause the shock) (commercial hemolysin, 5,000 U as assayed by the method of Ogata) and the time elapsed until death was observed. Each guinea pig of the treated group was administered intravenously with hemolysin after the animal was administered orally with compounds (100 mg/kg) and the time elapsed until death was observed.

[2] = Toxicity (median lethal dose); conditions: in vivo, mouse

| Structure (SMILES) | inhibition at 10 µM (C1r) | IC50 (C1s) | IC50 (Trypsin) | IC50 (Kallikrein) | Inhibition of complement mediated hemolysis (%) ([1]; 1 × 10^-5) | Inhibition of complement mediated hemolysis (%) ([1]; 1 × 10^-6) | Inhibition of complement mediated hemolysis (%) ([1]; 1 × 10^-7) | IC50 (Thrombin) | IC50 (Plasmin; TAME hydrolysis, read-out: ID50, Plasmin) | Survival (instead of time elapsed until death) (Forssman shock) | time elapsed until death (Forssman shock) | LD50 ([2]; iv, I.V.) | LD50 ([2]; po, P.O.) | IC50 (Plasmin) |
| --- | --- | --- | --- | --- | --- | --- | --- | --- | --- | --- | --- | --- | --- | --- |
| CN=C(NC)Nc1ccc(C(=O)Oc2ccc3cc(C(=N)N)ccc3c2)cc1 [Compound No. 1, 6-amidino-2-naphthyl 4-(2,3-dimethyl)guanidino-benzoate] | 32% | 400 nM | 10000 nM | 700 nM | 97% | 70% | 6% | 9000 nM | 800 nM | Survival | 1291 s and 390 s and 504 s and 613 s and 404 s and 868 s |  |  |  |
| N=C(N)c1ccc2cc(OC(=O)c3ccc(NC4=NCCN4)cc3)ccc2c1 [Compound No. 2, 6-amidino-2-naphthyl 4-(2-imidazolinyl)amino-benzoate] | 35% | 700 nM | 1000 nM |  | 100% | 91% | 29% |  |  |  | 1108 s and 1255 s and 980 s and 855 s | 19 mg/kg | > 3000 mg/kg | 2000 nM |
